pEC50: −log10 of the molar value. Ends that are not written are not given here.
Legend:
[1] = test system: Vero E6 cells; assay: Cytotoxicity assay, CELLTITER-GLO, Vero E6 cells; settings: peptide concentrations at or below 2 μM, about 72 hours
[2] = test system: HEK cells; assay: Cytotoxicity with varying serum (FBS) concentrations, HEK cells; settings: 0-50% FBS
[3] = test system: dengue virus type 2; settings: read-out: EC50 against dengue virus (DENV); plaque assay
[4] = test system: human adenovirus 5; settings: read-out: EC50 against adenovirus (AdV); plaque assay
[5] = test system: HEK cells; assay: Cytotoxicity with varying cell densities, HEK cells; settings: 5×10^3 to 1×10^5 cells/well
[6] = test system: herpes simplex virus type 1; settings: read-out: EC50 against herpes simplex virus (HSV); plaque assay
[7] = test system: Lassa pseudovirus (LASVpv); settings: 1 h

In the case of RRGWLLLRLLRLLLRLLWGRR-NH2 [AHR], the “cell viability, Vero E6 cells” value [1] was “High cell viability”, the “effect of serum concentration on cytotoxicity” value [2] was “cytotoxic in all serum concentrations at high peptide concentrations” and the pEC50 [3] was 6.51. The pEC50 [4] was 5.96, the “effect of cell density on cytotoxicity” value [5] was “increases as cell density increases” and the pEC50 [6] was 6.80. The pEC50 [7] was > 5.00 and the “inhibition of LASVpv at 50 μM peptide” value ([7]; 50 μM) was “approximately 100%”.

Reference: patent US20230220010A1, “BROAD-SPECTRUM ANTIVIRAL PEPTIDES” (priority 2020, published 2023)
